Reference: patent publication US8962641B2, “Pyrimidine-substituted pyrrolidine derivatives, pharmaceutical compositions and uses thereof” (Boehringer Ingelheim International GmbH, priority 2013, dated 2015)

Molecular target: human ACC2 (Homo sapiens (Human), UniProt O00763)
Test: ACC2 assay (spectrophotometric 384 well assay, NADH-linked kinetic method)
Format: biochemical
Conditions: hACC2 construct lacking 128 N-terminal amino acids; coupled lactate dehydrogenase/pyruvate kinase reaction, 340 nm, 25° C.
Method: Spectrophotometric 384 Well Assay
Malonyl CoA formation by acetyl CoA carboxylases is stoichometrically linked to the consumption of ATP. ACC2 activity is measured in a NADH-linked kinetic method measuring ADP generated during the ACC reaction using a coupled lactate dehydrogenase/pyruvate kinase reaction.
The protein is then expressed in insect cells using a baculoviral expression system. Protein purification is performed by anion exchange.
All compounds are dissolved in dimethyl sulfoxide (DMSO) to a concentration of 10 mM.
The enzymatic reaction is then started by addition of a mixture of NADH, acetyl Coenzyme A (both 200 μM f.c.) and ATP (500 uM f.c.). The decrease of the optical density (slope S) is then determined at 25° C. at a wavelength of 340 nm over 15 minutes in a spectrophotometric reader.
Each assay microtiter plate contains wells with vehicle instead of compound as controls for the non-inhibited enzyme (100% CTL; ‘HIGH’) and wells without acetyl-CoA as controls for non-specific NADH degradation (0% CTL; ‘LOW’).

Chain of human ACC2 (O00763 129-2458): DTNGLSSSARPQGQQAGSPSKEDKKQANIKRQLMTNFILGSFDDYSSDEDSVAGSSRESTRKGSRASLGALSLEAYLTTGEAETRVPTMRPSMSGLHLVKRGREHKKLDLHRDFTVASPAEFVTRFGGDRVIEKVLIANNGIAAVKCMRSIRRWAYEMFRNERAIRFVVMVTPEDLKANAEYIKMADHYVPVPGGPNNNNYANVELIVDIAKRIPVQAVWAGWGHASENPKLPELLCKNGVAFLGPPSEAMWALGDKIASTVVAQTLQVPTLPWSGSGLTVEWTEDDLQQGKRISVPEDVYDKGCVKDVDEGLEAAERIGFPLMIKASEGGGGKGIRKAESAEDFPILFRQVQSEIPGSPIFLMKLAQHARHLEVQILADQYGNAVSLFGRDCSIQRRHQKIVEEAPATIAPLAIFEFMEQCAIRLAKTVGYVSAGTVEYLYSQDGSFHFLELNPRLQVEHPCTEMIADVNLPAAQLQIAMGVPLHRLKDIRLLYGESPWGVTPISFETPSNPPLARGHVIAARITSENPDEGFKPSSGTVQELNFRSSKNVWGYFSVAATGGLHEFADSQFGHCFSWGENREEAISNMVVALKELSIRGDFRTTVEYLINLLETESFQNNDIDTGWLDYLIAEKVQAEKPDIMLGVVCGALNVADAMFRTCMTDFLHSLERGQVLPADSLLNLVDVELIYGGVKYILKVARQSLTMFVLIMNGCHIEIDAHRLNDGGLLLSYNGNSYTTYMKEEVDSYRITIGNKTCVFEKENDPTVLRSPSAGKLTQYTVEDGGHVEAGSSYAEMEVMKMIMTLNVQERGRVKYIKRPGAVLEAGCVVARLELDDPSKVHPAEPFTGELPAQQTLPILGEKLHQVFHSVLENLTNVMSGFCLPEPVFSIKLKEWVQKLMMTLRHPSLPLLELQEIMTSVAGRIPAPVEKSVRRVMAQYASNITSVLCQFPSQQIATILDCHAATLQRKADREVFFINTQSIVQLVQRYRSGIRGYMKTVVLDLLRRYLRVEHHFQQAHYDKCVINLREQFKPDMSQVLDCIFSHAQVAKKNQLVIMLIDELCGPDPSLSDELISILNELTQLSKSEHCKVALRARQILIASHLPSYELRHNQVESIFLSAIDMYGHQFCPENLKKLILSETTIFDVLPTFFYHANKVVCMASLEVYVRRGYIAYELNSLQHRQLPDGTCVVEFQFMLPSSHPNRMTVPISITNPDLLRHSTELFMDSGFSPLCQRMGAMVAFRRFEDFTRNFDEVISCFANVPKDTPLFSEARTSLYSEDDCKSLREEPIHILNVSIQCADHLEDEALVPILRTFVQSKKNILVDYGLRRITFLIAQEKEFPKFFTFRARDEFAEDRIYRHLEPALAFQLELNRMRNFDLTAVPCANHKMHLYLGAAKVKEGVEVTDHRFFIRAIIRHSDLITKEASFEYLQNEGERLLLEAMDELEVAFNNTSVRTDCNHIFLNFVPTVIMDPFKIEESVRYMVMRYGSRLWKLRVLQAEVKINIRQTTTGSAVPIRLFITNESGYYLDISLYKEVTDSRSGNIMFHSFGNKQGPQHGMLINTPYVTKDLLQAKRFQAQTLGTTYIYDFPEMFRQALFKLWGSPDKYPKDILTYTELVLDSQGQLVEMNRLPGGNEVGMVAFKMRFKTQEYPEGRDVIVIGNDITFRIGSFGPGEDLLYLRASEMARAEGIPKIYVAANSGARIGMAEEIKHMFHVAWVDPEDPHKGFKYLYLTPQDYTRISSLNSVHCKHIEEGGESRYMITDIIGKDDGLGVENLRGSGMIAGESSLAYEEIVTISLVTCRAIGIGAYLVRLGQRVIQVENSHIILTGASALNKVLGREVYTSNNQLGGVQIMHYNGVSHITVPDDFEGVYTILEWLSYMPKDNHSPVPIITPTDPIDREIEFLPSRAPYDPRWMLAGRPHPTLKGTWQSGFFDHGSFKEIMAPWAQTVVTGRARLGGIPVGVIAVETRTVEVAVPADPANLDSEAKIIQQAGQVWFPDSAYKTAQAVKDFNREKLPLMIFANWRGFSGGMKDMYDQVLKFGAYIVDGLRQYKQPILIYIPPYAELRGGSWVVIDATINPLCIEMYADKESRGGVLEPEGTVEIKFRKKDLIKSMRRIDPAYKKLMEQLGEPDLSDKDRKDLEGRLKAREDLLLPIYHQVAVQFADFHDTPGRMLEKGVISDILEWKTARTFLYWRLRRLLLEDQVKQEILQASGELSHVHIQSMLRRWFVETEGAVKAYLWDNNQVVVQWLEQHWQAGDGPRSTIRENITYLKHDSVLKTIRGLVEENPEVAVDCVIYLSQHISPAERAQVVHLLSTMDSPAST

| SMILES | IC50 [nM] |
| --- | --- |
| CC(=O)N[C@@H](C)c1ccc(O[C@@H]2CCN(c3ncc(OC(C)C)cn3)C2)cc1 [Example 6.6] | 830 |
| CC(=O)N[C@@H](C)c1ccc(O[C@@H]2CCN(c3ncc(OCC4CC4)cn3)C2)cc1 [Example 6.7] | 1080 |
| CC(=O)N[C@@H](C)c1ccc(O[C@@H]2CCN(c3ncc(OCC4CC4(F)F)cn3)C2)cc1 (some centres unmarked) [Example 6.8] | 163 |
| CC(=O)N[C@@H](C)c1ccc(O[C@@H]2CCN(c3ccnc(C(C)C)n3)C2)cc1 [Example 6.9] | 654 |
| CC(=O)N[C@@H](C)c1ccc(O[C@@H]2CCN(c3nccc(N4CCCC4)n3)C2)cc1 [Example 6.10] | 929 |
| CCN(C)c1ccnc(N2CC[C@@H](Oc3ccc([C@H](C)NC(C)=O)cc3)C2)n1 [Example 6.11] | 244 |
| CCN(C)c1nc(N2CC[C@@H](Oc3ccc([C@H](C)NC(C)=O)cc3)C2)ncc1F [Example 6.12] | 828 |
| CCN(CC)c1nc(N2CC[C@@H](Oc3ccc([C@H](C)NC(C)=O)cc3)C2)ncc1F [Example 6.13] | 510 |
| C[C@H](NC(=O)c1cncs1)c1ccc(O[C@@H]2CCN(c3nccc(N4CCOCC4)n3)C2)cc1 [Example 6.14] | 290 |
| C[C@H](NC(=O)c1cncs1)c1ccc(O[C@@H]2CCN(c3ncc(OCC4CC4(F)F)cn3)C2)cc1 (some centres unmarked) [Example 6.15] | 220 |
| C[C@H](NC(=O)c1cncs1)c1ccc(O[C@@H]2CCN(c3ccnc(C(F)(F)F)n3)C2)cc1 [Example 6.16] | 153 |
| CC(=O)N[C@@H](C)c1ccc(O[C@@H]2CCN(c3ncc(C4CCC4)cn3)C2)cc1 [Example 6.17] | 2360 |
| CC(=O)N[C@@H](C)c1ccc(O[C@@H]2CCN(c3ncc(C4CCCC4)cn3)C2)cc1 [Example 6.18] | 935 |
| CC(=O)N[C@@H](C)c1ccc(O[C@@H]2CCN(c3ncc(OCCC4CC4)cn3)C2)cc1 [Example 6.19] | 449 |
| CC(=O)N[C@@H](C)c1ccc(O[C@@H]2CCN(c3ncc(OCC(C)C)cn3)C2)cc1 [Example 6.20] | 974 |
| CC(=O)N[C@@H](C)c1ccc(O[C@@H]2CCN(c3ccnc(C(F)(F)F)n3)C2)cc1 [Example 6.21] | 303 |
| CCCN(C)c1ccnc(N2CC[C@@H](Oc3ccc([C@H](C)NC(C)=O)cc3)C2)n1 [Example 6.22] | 1350 |
| CC(=O)N[C@@H](C)c1ccc(O[C@@H]2CCN(c3nccc(C(F)(F)F)n3)C2)cc1 [Example 6.23] | 1730 |
| CC(=O)N[C@@H](C)c1ccc(O[C@@H]2CCN(c3ncc(C(C)(C)C)cn3)C2)cc1 [Example 6.24] | 819 |
| CCCc1cnc(N2CC[C@@H](Oc3ccc([C@H](C)NC(C)=O)cc3)C2)nc1 [Example 6.25] | 714 |
| CC(=O)N[C@@H](C)c1ccc(O[C@@H]2CCN(c3ncc(OC[C@H]4CC4(F)F)cn3)C2)cc1 [Example 6.26] | 120 |
| CC(=O)N[C@@H](C)c1ccc(O[C@@H]2CCN(c3ncnc(OCC4CC4)c3F)C2)cc1 [Example 7.1, N—((S)-1-(4-((R)-1-(6-(cyclopropylmethoxy)-5-fluoropyrimidin-4-yl)pyrrolidin-3-yloxy)phenyl)ethyl)acetamide] | 35 |
| CCCOc1cc(N2CC[C@@H](Oc3ccc([C@H](C)NC(C)=O)cc3)C2)ncn1 [Example 7.2] | 649 |

| SMILES | IC50 [nM] |
| --- | --- |
| CC(=O)N[C@@H](C)c1ccc(O[C@@H]2CCN(c3cc(OCC4CC4)ncn3)C2)cc1 [Example 7.3] | 375 |
| CC(=O)N[C@@H](C)c1ccc(O[C@@H]2CCN(c3cc(OC4CCC4)ncn3)C2)cc1 [Example 7.4] | 373 |
| CC(=O)N[C@@H](C)c1ccc(O[C@@H]2CCN(c3cc(OCC4CC4(F)F)ncn3)C2)cc1 (some centres unmarked) [Example 7.5] | 842 |
| CC(=O)N[C@@H](C)c1ccc(O[C@@H]2CCN(c3ccnc(OCC4CC4)n3)C2)cc1 [Example 7.6] | 1100 |
| CC(=O)N[C@@H](C)c1ccc(O[C@@H]2CCN(c3ccnc(OC4CCC4)n3)C2)cc1 [Example 7.7] | 884 |
| CCCOc1ccnc(N2CC[C@@H](Oc3ccc([C@H](C)NC(C)=O)cc3)C2)n1 [Example 7.8] | 2090 |
| CC(=O)N[C@@H](C)c1ccc(O[C@@H]2CCN(c3cc(OCC(F)(F)F)ncn3)C2)cc1 [Example 7.9] | 879 |
| CC(=O)N[C@@H](C)c1ccc(O[C@@H]2CCN(c3nc(OC4CCC4)ncc3F)C2)cc1 [Example 7.11] | 368 |
| CCOc1ncc(F)c(N2CC[C@@H](Oc3ccc([C@H](C)NC(C)=O)cc3)C2)n1 [Example 7.12] | 585 |
| CC(=O)N[C@@H](C)c1ccc(O[C@@H]2CCN(c3nc(OCC(C)C)ncc3F)C2)cc1 [Example 7.14] | 780 |
| CC(=O)N[C@@H](C)c1ccc(O[C@@H]2CCN(c3nc(OCC(F)F)ncc3F)C2)cc1 [Example 7.15] | 828 |
| CC(=O)N[C@@H](C)c1ccc(O[C@@H]2CCN(c3ccnc(OCC(C)C)n3)C2)cc1 [Example 7.17] | 960 |
| CC(=O)N[C@@H](C)c1ccc(O[C@@H]2CCN(c3nc(OCC4(C)CC4)ncc3F)C2)cc1 [Example 7.18] | 565 |
| CCCOc1ncnc(N2CC[C@@H](Oc3ccc([C@H](C)NC(C)=O)cc3)C2)c1F [Example 7.19] | 65 |
| CC(=O)N[C@@H](C)c1ccc(O[C@@H]2CCN(c3ncnc(OCC4CC4)c3Cl)C2)cc1 [Example 7.20] | 35 |
| CCCOc1ncnc(N2CC[C@@H](Oc3ccc([C@H](C)NC(C)=O)cc3)C2)c1Cl [Example 7.21] | 45 |
| CCOc1ncnc(N2CC[C@@H](Oc3ccc([C@H](C)NC(C)=O)cc3)C2)c1Cl [Example 7.22] | 140 |
| CCCOc1ncnc(N2CC[C@@H](Oc3ccc([C@H](C)NC(C)=O)cc3)C2)c1C [Example 7.23] | 120 |
| CCOc1ncnc(N2CC[C@@H](Oc3ccc([C@H](C)NC(C)=O)cc3)C2)c1C [Example 7.24] | 394 |
| CC(=O)N[C@@H](C)c1ccc(O[C@@H]2CCN(c3ncnc(OCC4CC4)c3C)C2)cc1 [Example 7.25] | 67 |
| CCOc1ncnc(N2CC[C@@H](Oc3ccc([C@H](C)NC(C)=O)cc3)C2)c1F [Example 7.26] | 148 |
| CC(=O)N[C@@H](C)c1ccc(O[C@@H]2CCN(c3ncnc(OC4CCC4)c3F)C2)cc1 [Example 7.27] | 35 |
| CC(=O)N[C@@H](C)c1ccc(O[C@@H]2CCN(c3ncnc(OCC(C)C)c3F)C2)cc1 [Example 7.28] | 69 |

| SMILES | IC50 [nM] |
| --- | --- |
| CC(=O)N[C@@H](C)c1ccc(O[C@@H]2CCN(c3ncnc(OCC4(C#N)CC4)c3F)C2)cc1 [Example 7.29] | 175 |
| CC(=O)N[C@@H](C)c1ccc(O[C@@H]2CCN(c3ncnc(OCC(F)F)c3F)C2)cc1 [Example 7.30] | 153 |
| CC(=O)N[C@@H](C)c1ccc(O[C@@H]2CCN(c3ncnc(OCCCF)c3F)C2)cc1 [Example 7.31] | 49 |
| CC(=O)N[C@@H](C)c1ccc(O[C@@H]2CCN(c3ncnc(OCC(C)(C)O)c3F)C2)cc1 [Example 7.32] | 145 |
| CC(=O)N[C@@H](C)c1ccc(O[C@@H]2CCN(c3ncnc(OCC(C)(F)F)c3F)C2)cc1 [Example 7.33] | 86 |
| CC(=O)N[C@@H](C)c1ccc(O[C@@H]2CCN(c3ncnc(OCC4CC4(F)F)c3F)C2)cc1 (some centres unmarked) [Example 7.34] | 63 |
| C[C@H](NC(=O)OCC1CC1)c1ccc(O[C@@H]2CCN(c3ncnc(OCC4CC4)c3F)C2)cc1 [Example 7.36] | 2900 |
| CC(=O)N[C@@H](C)c1ccc(O[C@@H]2CCN(c3ncnc(OC4CCOCC4)c3F)C2)cc1 [Example 7.37] | 250 |
| CC(=O)N[C@@H](C)c1ccc(O[C@@H]2CCN(c3ncnc(O[C@@H]4CCOC4)c3F)C2)cc1 [Example 7.38] | 196 |
| CC(=O)N[C@@H](C)c1ccc(O[C@@H]2CCN(c3ncnc(OCC(C)(F)F)c3Cl)C2)cc1 [Example 7.39] | 60 |
| CC(=O)N[C@@H](C)c1ccc(O[C@@H]2CCN(c3ncnc(OCC4CC4(F)F)c3Cl)C2)cc1 (some centres unmarked) [Example 7.40] | 42 |
| CC(=O)N[C@@H](C)c1ccc(O[C@@H]2CCN(c3ncnc(OC4CCC4)c3Cl)C2)cc1 [Example 7.41] | 39 |
| CC(=O)N[C@@H](C)c1ccc(O[C@@H]2CCN(c3ncnc(OCC(C)(C)O)c3Cl)C2)cc1 [Example 7.42] | 81 |
| CCOc1ncnc(N2CC[C@@H](Oc3ccc([C@H](C)NC(C)=O)cc3)C2)c1OC [Example 7.44] | 277 |
| CC(=O)N[C@@H](C)c1ccc(O[C@@H]2CCN(c3ncnc(OC[C@H]4CC4(F)F)c3F)C2)cc1 [Example 7.45] | 99 |
| COC(C)(C)COc1ncnc(N2CC[C@@H](Oc3ccc([C@H](C)NC(C)=O)cc3)C2)c1F [Example 7.46] | 595 |
| CC(=O)N[C@@H](C)c1ccc(O[C@@H]2CCN(c3ncnc(OC4CCCC4)c3F)C2)cc1 [Example 7.47] | 58 |
| CC(=O)N[C@@H](C)c1ccc(O[C@@H]2CCN(c3ncnc(OC[C@@H]4CC4(F)F)c3F)C2)cc1 [Example 7.48] | 87 |
| COc1c(OCC(C)(F)F)ncnc1N1CC[C@@H](Oc2ccc([C@H](C)NC(C)=O)cc2)C1 [Example 7.49] | 117 |
| COc1c(OC(C)C)ncnc1N1CC[C@@H](Oc2ccc([C@H](C)NC(C)=O)cc2)C1 [Example 7.50] | 97 |
| CCCOc1ncnc(N2CC[C@@H](Oc3ccc([C@H](C)NC(C)=O)cc3)C2)c1OC [Example 7.51] | 392 |
| CC(=O)N[C@@H](C)c1ccc(O[C@@H]2CCN(c3ncnc(OC(C)C)c3Cl)C2)cc1 [Example 7.52] | 105 |
